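Where inhibition never reached the appropriate level, the endpoint shown equals the highest concentration tested. Otherwise, values were interpolated linearly from a five-concentration, 48-hour dose response in 96-well plates. The concentration for 50% growth inhibition is given as GI50.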 The source made the active and inactive calls. No stated cut-off is given here; in the data, active = GI50 up to about 1.1 µM and inactive = higher. Some results are limits rather than exact numbers.

Test in all cases: NCI anticancer screen, dose series, 48 h
Assay [1] concerns 786-0.
The test system of assay [2] is A549.
Assay [3] relates to COLO 205.
The test system of assay [4] is HCC 2998.
Assay [5] has as its system HCT-116.
The test system of assay [6] is HL-60.
The subject of assay [7] is HOP-62.
The subject of assay [8] is HOP-92.
Assay [9] has as its system HT-29.
For assay [10], the system named is KM12.
For assay [11], the system named is MDA-MB-231.
Assay [12] deals with MDA-MB-435.
Assay [13] deals with MOLT-4.
The test system of assay [14] is NCI-H522.
In assay [15] the test system is RPMI-8226.
Assay [16] has as its system SNB-75.
Assay [17] has as its system T47D.
Assay [18] concerns UACC-62.
Assay [19] has as its system UO-31.
Assay [20] relates to MCF7.

Consider `CN1CCc2cc(N)cc3c2C1Cc1ccc(O)c(O)c1-3` (configuration not stated), for which the GI50 was 33 µM (inactive) in assay [1]; 34.2 µM (inactive) in [2]; 37.9 µM (inactive) in assay [3]; 12.6 µM (inactive) in [4]; 32.2 µM (inactive) in assay [5]; 25.8 µM (inactive) in [6]. Further, the GI50 in assay [7] was 49.3 µM (inactive); in assay [8], 51.2 µM (inactive); in assay [9], 34.4 µM (inactive); in [10] it was 33.4 µM (inactive); in assay [11], 75 µM (inactive); in assay [12], 36.8 µM (inactive). Besides, the GI50 in assay [13] is 3.92 µM (inactive); in assay [14], 27.2 µM (inactive); in assay [15], 21.8 µM (inactive); in assay [16] it was 40.9 µM (inactive); in assay [17], 61.8 µM (inactive); in assay [18] it was 23.7 µM (inactive). Besides, in assay [19], the GI50 is 42.8 µM (inactive).

For the molecule `Nc1ccccc1OCc1cc(=O)c(OCc2ccccc2)co1`, the GI50 in [1] was 23.8 µM (inactive); in assay [2], 71.1 µM (inactive); in assay [3] it was 12.6 µM (inactive); in [5] it was 64.7 µM (inactive); in [6], 14.9 µM (inactive); in assay [7], 33 µM (inactive). Besides, the GI50 in [8] is 0.202 µM (active); in assay [9] it was 5.05 µM (inactive); in [10] it was 6.47 µM (inactive); in assay [20] it was 14.7 µM (inactive); in assay [11], 19.9 µM (inactive); in [12] it was 15.8 µM (inactive). Also, the GI50 was > 100 µM (inactive) in [13], 15 µM (inactive) in assay [15], 24.2 µM (inactive) in [17] and 0.469 µM (active) in assay [18].

Turning to `Fc1cc(-c2cc(-c3ccc4c(c3)OCO4)n[nH]2)c(Cl)cc1Cl`, the GI50 in assay [1] is 1.84 µM (inactive); in assay [2], 2.72 µM (inactive); in assay [3] it was 3.42 µM (inactive); in assay [4] it was 4.94 µM (inactive); in assay [5], 2 µM (inactive); in [6], > 100 µM (inactive). The GI50 is 2.29 µM (inactive) in assay [7]; 2.26 µM (inactive) in assay [8]; 4 µM (inactive) in assay [9]; 3.01 µM (inactive) in [10]; 1.75 µM (inactive) in assay [11]; 4.88 µM (inactive) in [12]. Moreover, the GI50 is > 32.2 µM (inactive) in assay [13]; 4.1 µM (inactive) in [14]; 4.54 µM (inactive) in [15]; 1.8 µM (inactive) in assay [16]; 2.2 µM (inactive) in [17]; 1.46 µM (inactive) in [18]. Moreover, in assay [19], the GI50 is 2.51 µM (inactive).

As to `COc1ccccc1-c1cc(=O)c2ccccc2n1C1CC1`, the GI50 in [1] is 3.99 µM (inactive); in assay [2], 2.84 µM (inactive); in assay [3], 1.57 µM (inactive); in [5] it was 1.23 µM (inactive); in assay [6] it was 13.7 µM (inactive); in assay [7] it was 3.95 µM (inactive). Further, the GI50 was 1.78 µM (inactive) in assay [8]; 0.0782 µM (active) in [9]; 2.37 µM (inactive) in assay [10]; 1.98 µM (inactive) in assay [20]; 3.76 µM (inactive) in assay [11]; 3.42 µM (inactive) in assay [12]. The GI50 is 19.4 µM (inactive) in assay [13]; 0.865 µM (active) in [14]; 1.71 µM (inactive) in assay [15]; 2.37 µM (inactive) in assay [17]; 2.77 µM (inactive) in assay [18]; 3.85 µM (inactive) in assay [19].
